System: 695427-040-R-J1-PDC complex spheroids, viability percent T/C
Assay: Anticancer human tumor 695427-040-R-J1-PDC patient-derived colon adenocarcinoma cell line growth inhibition [GQUAD]
Conditions: for IC50: curve of first compound; for viability, T/C: stronger effect = lower value; active = viability on the fitted dose curve at most 10% of control; inactive = the rest
Summary of the method: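 Viability of tumor cells grown as complex spheroids with endothelial and stromal cells, exposed to drug combinations. Top concentration at or near clinical Cmax (else 10 microM), diluted in half-log increments.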

[1] = second compound 0.0316 µM, first compound 0.0316 µM
[2] = second compound 0.0316 µM, first compound 0.1 µM
[3] = second compound 0.0316 µM, first compound 0.316 µM
[4] = second compound 0.0316 µM, first compound 1 µM
[5] = second compound 0.0316 µM, first compound 3.16 µM
[6] = second compound 0.0316 µM, first compound 10 µM
[7] = second compound 0.1 µM, first compound 0.0316 µM
[8] = second compound 0.1 µM, first compound 0.1 µM
[9] = second compound 0.1 µM, first compound 0.316 µM
[10] = second compound 0.1 µM, first compound 1 µM
[11] = second compound 0.1 µM, first compound 3.16 µM
[12] = second compound 0.1 µM, first compound 10 µM
[13] = second compound 0.316 µM, first compound 0.0316 µM
[14] = second compound 0.316 µM, first compound 0.1 µM
[15] = second compound 0.316 µM, first compound 0.316 µM
[16] = second compound 0.316 µM, first compound 1 µM
[17] = second compound 0.316 µM, first compound 3.16 µM
[18] = second compound 0.316 µM, first compound 10 µM
[19] = second compound 1 µM, first compound 0.0316 µM
[20] = second compound 1 µM, first compound 0.1 µM
[21] = second compound 1 µM, first compound 0.316 µM
[22] = second compound 1 µM, first compound 1 µM
[23] = second compound 1 µM, first compound 3.16 µM
[24] = second compound 1 µM, first compound 10 µM
[25] = second compound 3.16 µM, first compound 0.0316 µM
[26] = second compound 3.16 µM, first compound 0.1 µM
[27] = second compound 3.16 µM, first compound 0.316 µM
[28] = second compound 3.16 µM, first compound 1 µM
[29] = second compound 3.16 µM, first compound 3.16 µM
[30] = second compound 3.16 µM, first compound 10 µM
[31] = second compound 10 µM, first compound 0.0316 µM
[32] = second compound 10 µM, first compound 0.1 µM
[33] = second compound 10 µM, first compound 0.316 µM
[34] = second compound 10 µM, first compound 1 µM
[35] = second compound 10 µM, first compound 3.16 µM
[36] = second compound 10 µM, first compound 10 µM
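Note: spheroids exposed to compounds for seven days before readout.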

C#Cc1c(F)ccc2cc(O)cc(-c3ncc4c(N5CC6CCC(C5)N6)nc(OCC56CCCN5CC(F)C6)nc4c3F)c12 (stereo not given) + CN(C)c1ccc(Nc2c3ccc(NC(=O)CCN4CCCC4)cc3nc3cc(NC(=O)CCN4CCCC4)ccc23)cc1
inactive: viability, T/C [1] 101% | viability, T/C [2] 102% | viability, T/C [3] 100% | viability, T/C [4] 98.9% | viability, T/C [5] 98.4% | viability, T/C [6] 83.5% | viability, T/C [7] 106% | viability, T/C [8] 95.4% | viability, T/C [9] 98% | viability, T/C [10] 94% | viability, T/C [11] 97.5% | viability, T/C [12] 83.3% | viability, T/C [13] 96.4% | viability, T/C [14] 106% | viability, T/C [15] 94.6% | viability, T/C [16] 89.5% | viability, T/C [17] 99.1% | viability, T/C [18] 80.6% | viability, T/C [19] 100% | viability, T/C [20] 102% | viability, T/C [21] 106% | viability, T/C [22] 101% | viability, T/C [23] 91.8% | viability, T/C [24] 77.5% | viability, T/C [25] 101% | viability, T/C [26] 91% | viability, T/C [27] 92.9% | viability, T/C [28] 87.7% | viability, T/C [29] 86.2% | viability, T/C [30] 80.7% | viability, T/C [31] 87.1% | viability, T/C [32] 91.8% | viability, T/C [33] 86.1% | viability, T/C [34] 87.4% | viability, T/C [35] 82.4% | viability, T/C [36] 62.4%
> 10 µM: IC50 (second compound 0.0316 µM) | IC50 (second compound 0.1 µM) | IC50 (second compound 0.316 µM) | IC50 (second compound 1 µM) | IC50 (second compound 3.16 µM) | IC50 (second compound 10 µM)

CC1COCCN1c1cc(C2(S(C)(=N)=O)CC2)nc(-c2ccnc3[nH]ccc23)n1 (stereo not given) + CN(C)c1ccc(Nc2c3ccc(NC(=O)CCN4CCCC4)cc3nc3cc(NC(=O)CCN4CCCC4)ccc23)cc1
> 10 µM: IC50 (second compound 0.0316 µM) | IC50 (second compound 0.1 µM) | IC50 (second compound 0.316 µM) | IC50 (second compound 1 µM) | IC50 (second compound 3.16 µM) | IC50 (second compound 10 µM)
inactive: viability, T/C [1] 104% | viability, T/C [2] 96.5% | viability, T/C [3] 106% | viability, T/C [4] 97% | viability, T/C [5] 95.5% | viability, T/C [6] 69.4% | viability, T/C [7] 109% | viability, T/C [8] 93.8% | viability, T/C [9] 110% | viability, T/C [10] 86.1% | viability, T/C [11] 87% | viability, T/C [12] 74% | viability, T/C [13] 103% | viability, T/C [14] 91.4% | viability, T/C [15] 94.3% | viability, T/C [16] 83.7% | viability, T/C [17] 87.5% | viability, T/C [18] 69.9% | viability, T/C [19] 93.3% | viability, T/C [20] 96.4% | viability, T/C [21] 100% | viability, T/C [22] 93.1% | viability, T/C [23] 91.5% | viability, T/C [24] 68.5% | viability, T/C [25] 95.8% | viability, T/C [26] 101% | viability, T/C [27] 103% | viability, T/C [28] 90.8% | viability, T/C [29] 93.4% | viability, T/C [30] 69.6% | viability, T/C [31] 86.7% | viability, T/C [32] 91.8% | viability, T/C [33] 91.9% | viability, T/C [34] 88.1% | viability, T/C [35] 86% | viability, T/C [36] 69.8%

CC(=O)O[C@H]1C(=O)[C@@]2(C)[C@H]([C@H](OC(=O)c3ccccc3)[C@]3(O)C[C@H](OC(=O)[C@H](O)[C@@H](NC(=O)c4ccccc4)c4ccccc4)C(C)=C1C3(C)C)[C@]1(OC(C)=O)CO[C@@H]1C[C@@H]2O + Cc1cnc(CNC(=O)c2c(=O)c3ccc(N4CCCN(C)CC4)nc3n3c2sc2ccccc23)cn1
inactive: viability, T/C [1] 102% | viability, T/C [2] 84.2% | viability, T/C [3] 85.5% | viability, T/C [4] 63.7% | viability, T/C [5] 65% | viability, T/C [6] 54.4% | viability, T/C [7] 90.5% | viability, T/C [8] 82.6% | viability, T/C [9] 91.5% | viability, T/C [10] 57.8% | viability, T/C [11] 71.8% | viability, T/C [12] 66.2% | viability, T/C [13] 80.4% | viability, T/C [14] 76.3% | viability, T/C [15] 62.3% | viability, T/C [16] 62% | viability, T/C [17] 65.7% | viability, T/C [18] 71.3% | viability, T/C [19] 65.3% | viability, T/C [20] 67.5% | viability, T/C [21] 65.9% | viability, T/C [22] 51.3% | viability, T/C [23] 76.5% | viability, T/C [24] 59.5% | viability, T/C [25] 40.7% | viability, T/C [26] 43.6% | viability, T/C [27] 56.9% | viability, T/C [28] 44.3% | viability, T/C [29] 60.4% | viability, T/C [30] 58% | viability, T/C [31] 30.6% | viability, T/C [32] 30% | viability, T/C [33] 43.5% | viability, T/C [34] 43.6% | viability, T/C [35] 44.2% | viability, T/C [36] 24.8%
< 0.0316 µM: IC50 (second compound 3.16 µM) | IC50 (second compound 10 µM)
> 10 µM: IC50 (second compound 0.0316 µM) | IC50 (second compound 0.1 µM) | IC50 (second compound 0.316 µM) | IC50 (second compound 1 µM)

COc1ccc([C@@H](O)c2cc(-c3ncnc4cc(N5CCOCC5)ccc34)c(F)cc2Cl)nn1 + Cc1[nH]c2ccc(F)cc2c1-c1nc2c3cccnc3c3ncccc3c2[nH]1
> 10 µM: IC50 (second compound 0.1 µM) | IC50 (second compound 0.316 µM)
4.23 µM: IC50 (second compound 10 µM)
5.46 µM: IC50 (second compound 3.16 µM)
inactive: viability, T/C [1] 105% | viability, T/C [2] 82.6% | viability, T/C [3] 80.9% | viability, T/C [4] 50.7% | viability, T/C [5] 58.2% | viability, T/C [6] 40.8% | viability, T/C [7] 103% | viability, T/C [8] 81.3% | viability, T/C [9] 83.5% | viability, T/C [10] 56.6% | viability, T/C [11] 72.1% | viability, T/C [12] 46.7% | viability, T/C [13] 90.7% | viability, T/C [14] 89.8% | viability, T/C [15] 80.3% | viability, T/C [16] 72% | viability, T/C [17] 71.5% | viability, T/C [18] 51.2% | viability, T/C [19] 74.2% | viability, T/C [20] 78.5% | viability, T/C [21] 83.9% | viability, T/C [22] 68.9% | viability, T/C [23] 73.9% | viability, T/C [24] 48.9% | viability, T/C [25] 64.1% | viability, T/C [26] 85.6% | viability, T/C [27] 72.9% | viability, T/C [28] 58.1% | viability, T/C [29] 66.6% | viability, T/C [30] 36.4% | viability, T/C [31] 74% | viability, T/C [32] 65.4% | viability, T/C [33] 82.8% | viability, T/C [34] 60.6% | viability, T/C [35] 55.5% | viability, T/C [36] 38.7%
9.52 µM: IC50 (second compound 1 µM)
3.62 µM: IC50 (second compound 0.0316 µM)

COc1ccc([C@@H](O)c2cc(-c3ncnc4cc(N5CCOCC5)ccc34)c(F)cc2Cl)nn1 + Cc1cnc(CNC(=O)c2c(=O)c3ccc(N4CCCN(C)CC4)nc3n3c2sc2ccccc23)cn1
3.68 µM: IC50 (second compound 0.1 µM)
2.08 µM: IC50 (second compound 0.316 µM)
active: viability, T/C [36] 5.79%
inactive: viability, T/C [1] 93.2% | viability, T/C [2] 101% | viability, T/C [3] 85.6% | viability, T/C [4] 64.3% | viability, T/C [5] 53.1% | viability, T/C [6] 31.2% | viability, T/C [7] 91.5% | viability, T/C [8] 103% | viability, T/C [9] 80.5% | viability, T/C [10] 66.5% | viability, T/C [11] 55.7% | viability, T/C [12] 36.3% | viability, T/C [13] 72.6% | viability, T/C [14] 79.3% | viability, T/C [15] 69.8% | viability, T/C [16] 56.1% | viability, T/C [17] 47.5% | viability, T/C [18] 35.2% | viability, T/C [19] 58% | viability, T/C [20] 69.4% | viability, T/C [21] 60.9% | viability, T/C [22] 52.2% | viability, T/C [23] 49.6% | viability, T/C [24] 32% | viability, T/C [25] 41.5% | viability, T/C [26] 46.3% | viability, T/C [27] 42.7% | viability, T/C [28] 46% | viability, T/C [29] 39.5% | viability, T/C [30] 21.9% | viability, T/C [31] 36.8% | viability, T/C [32] 39.6% | viability, T/C [33] 36.3% | viability, T/C [34] 33.6% | viability, T/C [35] 20.2%
2.95 µM: IC50 (second compound 0.0316 µM)
2.33 µM: IC50 (second compound 1 µM)
< 0.0316 µM: IC50 (second compound 3.16 µM) | IC50 (second compound 10 µM)

Reference: PubChem BioAssay AID2060492 (Molecular Pharmacology Branch, DTP, NCI, 2025)
